In US9789194B2, “Graft copolymer polyelectrolyte complexes for drug delivery” (priority 2007, dated 2017):
Peptide text beside a SMILES is read from it.

Experiments:
in vitro = details: human, plasma, half-life of the peptide, 50% human plasma
Protocol: Aqueous solutions of the peptide:polymer complexes with various peptide:[…], were combined 1:1 v/v with human plasma sodium heparin anticoagulated, Biological Specialty Corporation) and placed in a 37° C. incubator. Fifty microliter aliquots of this mixture were injected at 1 h intervals onto a Prosphere HP C18-300 column, 250×4.6 mm ((Grace) mounted on a Waters HPLC system. The injection was loaded onto the column and equilibrated using a 90%/10%/0.1% water/acetonitrile/trifluoroacetic acid mobile phase and then eluted using a continuous gradient up to 70% acetonitrile. Integration of the KSL-W absorbance peak at 280 nm was used to determine peptide concentration in each sample. Every sample was run in parallel with a free-drug control at the same concentration.

[1] = KSL-W binding efficiency by ultrafiltration; type: physicochemical; details: free peptide, 10 kDa MWCO ultrafiltration
Protocol: Efficiency of binding for each polymer-drug complex was determined using ultrafiltration. Ultrafiltration cartridges with 10 k MWCO (Amicon Microcon Ultrafiltration Filters) were used according to manufacturer's instructions. […] The KSL-W content of filtrate and retentate were determined using HPLC as described above.

[2] = tested on: Staphylococcus aureus UAMS-1; type: cell-based
Protocol: The minimum inhibitory concentrations (MIC) KSL-W and its nanocomplexes were measured using the Clinical Laboratory Standards Institute (CLSI) broth microdilution method. Briefly, two-fold serial dilutions of free or complexed KSL-W solutions were prepared in THB medium at a volume of 200 µL/well in flat-bottom 96-well tissue culture plates (BD Biosciences). Hundred microliter of Staphylococcus aureus UAMS-1 (10^6 CFU/mL) was then added to each well. Plates were incubated overnight at 37° C. and then assessed by turbidity (absorbance at 600 nm). The concentration at which no turbidity was observed was considered the MIC. Each assay was reproduced in triplicate.

[3] = KSL-W release profiles by dialysis; type: physicochemical; details: free peptide, within the first 6 h of dialysis
Protocol: Each membrane cartridge was placed into 40 mL of water at 37° C. with gentle rocking (VWR brand incubating rocker, 50 Hz/15°). […] The amount of KSL-W remaining in each cartridge was evaluated at each time point using HPLC.

Row | Compound | half-life (in vitro; initial KSL-W concentration between 33 and 72 μg/mL) | half-life (in vitro; initial concentration between 13:2 and 330) | efficiency of passing through the membrane [1] | MIC (S. aureus UAMS-1) ([2]; UAMS-1) | MIC ratio (complexed/free) ([2]; free peptide, charge ratio NA) | release through 8-10 kDa dialysis membrane [3] | MIC ([2]; same S. aureus strain and conditions)
1 | CC(C)[C@H](NC(=O)[C@H](Cc1c[nH]c2ccccc12)NC(=O)[C@H](Cc1ccccc1)NC(=O)[C@@H](NC(=O)[C@@H](NC(=O)[C@H](CCCCN)NC(=O)[C@@H](N)CCCCN)C(C)C)C(C)C)C(=O)N[C@@H](CCCCN)C(=O)N[C@@H](Cc1ccccc1)C(=O)N[C@@H](CCCCN)C(N)=O [KSL-W] (H-KKVVFWVKFK-NH2; N-terminus and C-terminus assumed) | 4 h | 1 h | over 95% | 62 to 153 µg/mL | 1 | over 95% | 
2 | gentamicin |  |  |  |  |  |  | < 3100 µg/mL
